# Reference: publication PMC3460729, “Innate immune properties of selected human neuropeptides against Moraxella catarrhalis and nontypeable Haemophilus influenzae” (BMC Immunology, 2012)
# Marks after values point to notes of the source that are not given here.
# Tests used:
# M. catarrhalis Mc5, Mc6 = assay: Time kill assay from 0 to 1.5 h; assay type: cell-based, Moraxella catarrhalis; settings: 100 μM
# Description: (§1) For the time kill assay from 0 to 1.5 h, overnight cultures of Mc and NTHi were inoculated into new medium and incubated under the relevant conditions until early log-phase (OD600 = 0.25–0.3). The bacteria were diluted in 10 mM sodium phosphate buffer, NaPB, (pH 7.4) containing 1% (w/v) BHI to obtain ~2 x 10^6 CFU/ml. […] After each time of incubation the suspensions were 10-fold serially diluted with 10 mM NaPB-1% BHI and 20 μl aliquots were plated in triplicate on BHI (M. catarrhalis) or HAEM (H. influenzae) agar plates. The plates were incubated overnight at 37°C in 5% CO2 conditions. Simultaneously, the incubation of bacteria in the presence of an appropriate diluent was included for positive control of bacterial growth. The colony counts and CFU/ml were calculated next day. The bactericidal activity of neuropeptides was expressed as survival ratios determined as the numbers of CFU after neuropeptide incubation divided by the numbers of CFU estimated from a control plate (time 0). All antimicrobial assays were performed at least two times in triplicate.
# [1] = tested on: nontypeable H. influenzae NTHi3, NTHi6; assay: Time kill assay from 0 to 1.5 h; assay type: cell-based, Haemophilus influenzae; settings: 100 μM, clinical isolates of H. influenzae
# Description: as §1
# E. coli ML-35p = assay: ONPG-mediated β-galactosidase membrane permeability assay; assay type: cell-based, Escherichia coli; settings: for time of maximal OD increase (ONPG influx): 100 μM neuropeptide; for ID50 (inducible dose) for intracellular influx of ONPG: dose causing 50% increase in OD405 in reference to chloroform-inducible maximum at 45 min, 10^6 CFU/ml, NaPB pH 7.4, 3 mM ONPG, 37°C, triplicate
# Description: To measure the activity of neuropeptides in permeabilization of bacterial membrane, the ONPG-mediated β-galactosidase microplate assay was used. Permeabilization was measured using E. coli ML-35 with constitutive cytoplasmic β-galactosidase activity as previously described. Briefly, 18 h E. coli ML-35p in TSB was recultivated in TSB until mid-log phase (OD600 = 0.5). Flasks were put on ice for 20 min, and 2 ml of bacterial suspensions were transferred to Eppendorf tubes, washed twice with 10 mM sodium phosphate NaPB (pH 7.4) and suspended in NaPB to OD600 = 0.5. […] Microplates were incubated at 37°C for 1.5 h and optical densities were measured every 15 minutes at λ=405 nm (spectrophotometer Opsys MR Dynex Technologist). All the assays were performed in triplicate. Two positive controls were used: polymyxin B at the final concentration of 1 μg/ml as an established model of peptide permeabilizing action, and 20% chloroform (v/v). […] The molar concentration of NP that caused such increase was extrapolated from a linear portion of NP titration curve. Negative controls constituted bacteria incubated with NaPB and ONPG but without neuropeptides.
# human PMNs [2] = assay: PMA-induced chemiluminescence in PMNs; assay type: cell-based; settings: 0.1 μM PMA, 0 to 60 min; five independent experiments in triplicate, 5 donors
# Description: Reactive oxygen species (ROS) formation by PMNs was measured using luminol-dependent chemiluminescence assay (CL) in white flat-bottom 96-well microplates (NUNC, Denmark). The reaction mixture of total volume 200 μl in each well contained: 100 μl of PMN suspension in HBSS–Ca^++Mg^++ (10^5 cells/well), 40 μl of luminol (50 μM/well), 40 μl of fMLP (0.2 μM/well), 20 μl of particular NP (in the range 10^−12–10^−8 M/well). In other experiments, the respiratory burst was triggered by phagocytosis of 40 μl heat killed (56°C/30 min) M. catarrhalis ATCC 25238 or H. influenzae ATCC 49247 at concentration of ½ of OD600 = 1 or OD600 = 1, respectively. […] The PMA stimulus at 0.1 μM final concentration was used as positive control of the relevant oxidative stress. The CL kinetics was measured at constant 37°C temperature using luminometer (Microlumat, LB96P, Berthold) and recorded as relative light units (RLU). Measuring conditions for fMLP were: interval (46 s), run time (up to 30 min). The conditions for bacterial and PMA stimulation were: interval (83 s), run time (up to 60 min). The maximal value of CL response curve was expressed as peak height (PHCL) for fMLP stimulant. In other cases the area under chemiluminescence curve (AUCCL) was calculated. Each sample was run in triplicate and the values were averaged. […] Results were expressed as mean ± SD. […]
# [3] = tested on: human PMNs stimulated with M. catarrhalis ATCC 25238; assay: M. catarrhalis-stimulated ROS generation by PMNs, luminol-dependent chemiluminescence; assay type: cell-based; settings: 10^−8 M NP, nonopsonized M. catarrhalis; mean ± SD, n = 5-6 donors
# Description: (§2) Polymorphonuclear leukocytes (PMNs) from healthy young adult volunteers were isolated from venous blood samples anticoagulated with Lithium-heparin (7.5 ml) by ficoll (Aqua-Med, Poland) density gradient centrifugation (2000 rpm/30 min), followed by hypotonic lysis of erythrocytes with a lysing buffer (0.83% NH4Cl, 0.1% KHCO3, EDTA, pH 7.4). After two washes (1400 rpm/10 min) in PBS, PMNs were resuspended to the final concentration of […] cells/ml in phagocytic buffer: HBSS with Ca^++ and Mg^++ supplemented with 1% HiFBS. The purity of granulocyte suspensions was checked using 15 μg/ml of acridine orange. […] Isolated PMNs were kept for 30 min at 37°C and 5% CO2 until used.
# Reactive oxygen species (ROS) formation by PMNs was measured using luminol-dependent chemiluminescence assay (CL) in white flat-bottom 96-well microplates (NUNC, Denmark). The reaction mixture of total volume 200 μl in each well contained: 100 μl of PMN suspension in HBSS–Ca^++Mg^++ (10^5 cells/well), 40 μl of luminol (50 μM/well), 40 μl of fMLP (0.2 μM/well), 20 μl of particular NP (in the range 10^−12–10^−8 M/well). […] The maximal value of CL response curve was expressed as peak height (PHCL) for fMLP stimulant. In other cases the area under chemiluminescence curve (AUCCL) was calculated. […] Results were expressed as mean ± SD.
# human PMNs [4] = assay: fMLF-induced ROS generation by PMNs, luminol-dependent chemiluminescence; assay type: cell-based; settings: for ROS release [% of control]: 0.2 μM fMLF, peak height PHCL, mean of three independent experiments
# Description: as §2
# Reactive oxygen species (ROS) formation by PMNs was measured using luminol-dependent chemiluminescence assay (CL) in white flat-bottom 96-well microplates (NUNC, Denmark). The reaction mixture of total volume 200 μl in each well contained: 100 μl of PMN suspension in HBSS–Ca^++Mg^++ (10^5 cells/well), 40 μl of luminol (50 μM/well), 40 μl of fMLP (0.2 μM/well), 20 μl of particular NP (in the range 10^−12–10^−8 M/well). In other experiments, the respiratory burst was triggered by phagocytosis of 40 μl heat killed (56°C/30 min) M. catarrhalis ATCC 25238 or H. influenzae ATCC 49247 at concentration of ½ of OD600 = 1 or OD600 = 1, respectively. […] The PMA stimulus at 0.1 μM final concentration was used as positive control of the relevant oxidative stress. The CL kinetics was measured at constant 37°C temperature using luminometer (Microlumat, LB96P, Berthold) and recorded as relative light units (RLU). Measuring conditions for fMLP were: interval (46 s), run time (up to 30 min). The conditions for bacterial and PMA stimulation were: interval (83 s), run time (up to 60 min). The maximal value of CL response curve was expressed as peak height (PHCL) for fMLP stimulant. In other cases the area under chemiluminescence curve (AUCCL) was calculated. Each sample was run in triplicate and the values were averaged. […] Results were expressed as mean ± SD.
SMILES,"type of antibacterial activity (M. catarrhalis Mc5, Mc6; both Mc strains)",type of antibacterial activity [1],time of maximal OD increase (ONPG influx) (E. coli ML-35p) [min],ID50 (inducible dose) for intracellular influx of ONPG (E. coli ML-35p) [µM],log10 of mean AUCCL ± SEM (human PMNs [2]),"culture survived (M. catarrhalis Mc5, Mc6; Mc5 and Mc6, 0.5 h) [%]",increase of mean AUCCL [3] [%],ROS release [% of control] (human PMNs [4]; 10^-8 M NP),ROS release [% of control] (human PMNs [4]; 10^-10 M NP),ROS release [% of control] (human PMNs [4]; 10^-12 M NP),"activation of respiratory burst of PMNs (human PMNs [4]; neuropeptide alone, without stimulus)"
"C[C@H](N)C(=O)NCC(=O)N[C@H]1CSSC[C@@H](C(=O)O)NC(=O)[C@H](CO)NC(=O)[C@H]([C@@H](C)O)NC(=O)[C@H](Cc2ccccc2)NC(=O)[C@H]([C@@H](C)O)NC(=O)[C@H](CCCCN)NC(=O)[C@H](Cc2c[nH]c3ccccc23)NC(=O)[C@H](Cc2ccccc2)NC(=O)[C@H](Cc2ccccc2)NC(=O)[C@H](CC(N)=O)NC(=O)[C@H](CCCCN)NC1=O [SOM, somatostatin]",bacteriostatic,bacteriostatic,90,104.1,,,,,,,
"CCCCCCCCCCCCCC(=O)O[C@@H]1[C@@H](C)[C@@]2(O)[C@@H](C=C(CO)C[C@]3(O)C(=O)C(C)=C[C@@H]23)[C@@H]2C(C)(C)[C@]12OC(C)=O [PMA, phorbol myristate acetate]",,,,,6.05 ± 4.32,,,,,,
"CSCC[C@H](NC(=O)[C@H](CC(C)C)NC(=O)CNC(=O)[C@H](Cc1ccccc1)NC(=O)[C@H](Cc1ccccc1)NC(=O)[C@H](CCC(N)=O)NC(=O)[C@H](CCC(N)=O)NC(=O)[C@@H]1CCCN1C(=O)[C@H](CCCCN)NC(=O)[C@@H]1CCCN1C(=O)[C@@H](N)CCCNC(=N)N)C(N)=O [SP, substance P]",,,90,29.2,,~100,14.2 ± 3.4,179.18^a % of control,160.36^a % of control,140.83^a % of control,did not activate
